Experimental data: US8158657B2, “Heterocycles substituted pyridine derivatives and antifungal agent containing thereof” (Eisai R&D Management Co., Ltd., priority 2005, dated 2012)
≈ marks a conversion by molar mass, not a printed value.

Assays:
[1] = system: A. fumigatus Tsukuba strain; test: Anti-Aspergillus activity, MIC measurement; format: cell-based; details: RPMI1640, 42-48 hours at 35° C., visual inspection, read-out: Anti-Aspergillus Activity (minimum inhibitory concentration, MIC)
How it was run: (§1)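 C. albicans CAF2-1 was grown 48 h at 30° C. in SDB and diluted in RPMI1640 to 1.2×10^3 cells/mL. Frozen A. fumigatus Tsukuba was diluted to 4.5×10^3 cells/mL. Compounds, two-fold serially diluted in DMSO from 2.5 mg/mL, were cultured aerobically with fungi for 42-48 h at 35° C.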

[2] = system: C. albicans E81022 strain; test: Experimental systemic candidal infection model in mice; format: in vivo; details: peroral, 3 times every 4 hours, female ICR mice, observed until 14 days after infection
Description: A standing culture of C. albicans E81022 strain was carried out for 48 hours at 30° C. in sabouraud dextrose agar medium (SDA), the recovered fungal cells were suspended in sterilized physiological saline. By counting the fungal number on cytometry plate, the suspension was diluted to 2×10^7 cells/mL with sterilized physiological saline to serve fungal inoculum.
The fungal inoculum was used in the amounts of 0.2 mL to inoculate 4.5 to 5.5 week-old female ICR mice in the tail vein (4×10^6 cells/mouse).
From 0.5 to 1 hour after fungal inoculation, 0.2 mL of agent solution (dissolved or suspended in sterilized physiological saline containing 6.5% dimethyl sulfoxide and 3.5% Tween 80) was administered into the stomach using a peroral probe, 3 times every 4 hours. The agent concentration was 2.5 mg/kg or 10 mg/kg, and the number of animals in one group was 5 animals.
The protective effect was determined by observing life/death until 14 days after infection and calculating the mean survival days.

[3] = system: C. albicans CAF2-1 strain; test: Anti-Candida activity, MIC measurement; format: cell-based; details: CAF21STRAIN, C. albicans CAF2-1, RPMI1640, 42-48 hours at 35° C., visual inspection, read-out: Anti-Candida Activity (minimum inhibitory concentration, MIC)
How it was run: as §1

| Structure (SMILES) | MIC [1] | Mean Survival Days ([2]; 2.5 mg/kg) | Mean Survival Days ([2]; 10 mg/kg) | MIC [3] |
| --- | --- | --- | --- | --- |
| Nc1ncccc1-c1cnn(Cc2ccc(OCc3ccccn3)cc2)c1 [Example 192, 3-(1-(4-(Pyridin-2-ylmethoxy)-benzyl)-1H-pyrazol-4-yl)-pyridin-2-ylamine] | 1.56 µg/mL (≈ 4.36 µM) | 3.2 days | 9.4 days | 0.39 µg/mL (≈ 1.09 µM) |
| CCCCOCc1ccc(Cn2cc(-c3ccc(N)nc3N)cn2)cc1 [Example 38, 3-(1-(4-Butoxymethyl-benzyl)-1H-pyrazol-4-yl)-pyridin-2,6-diamine] | 1.56 µg/mL (≈ 4.44 µM) | 4.8 days | 10.0 days | 0.78 µg/mL (≈ 2.22 µM) |
| Nc1ccc(-c2cc(Cc3ccn(Cc4ccccc4)c3)no2)c(N)n1 [Example 115, 3-(3-(1-Benzyl-1H-pyrrol-3-ylmethyl)-isoxazol-5-yl)-pyridin-2,6-diamine] | 0.2 µg/mL (≈ 0.579 µM) | 10.8 days | 13.2 days | 0.1 µg/mL (≈ 0.29 µM) |
| Cc1ccnc(OCc2ccc(Cc3cc(-c4ccc(N)nc4N)on3)cc2)c1 [Example 102, 3-(3-(4-(4-Methyl-pyridin-2-yloxymethyl)-benzyl)-isoxazol-5-yl)-pyridin-2,6-diamine] | 0.39 µg/mL (≈ 1.01 µM) | 13.2 days | 13.0 days | 0.2 µg/mL (≈ 0.516 µM) |
| Nc1ncccc1-c1cc(Cc2ccc(OCc3ccccc3)nc2)no1 [Example 12, 3-(3-(6-Benzyloxy-pyridin-3-ylmethyl)-isoxazol-5-yl)-pyridin-2-ylamine] | 0.1 µg/mL (≈ 0.279 µM) | 10.8 days | 14.0 days | 0.1 µg/mL (≈ 0.279 µM) |
| Nc1ncccc1-c1cc(Cc2ccc(COc3cccc(F)n3)cc2)no1 [Example 55, 3-(3-(4-(6-Fluoro-pyridin-2-yloxymethyl)-benzyl)-isoxazol-5-yl)-pyridin-2-ylamine] | 0.1 µg/mL (≈ 0.266 µM) | 13.8 days | 14.0 days | 0.05 µg/mL (≈ 0.133 µM) |
| Nc1ncccc1-c1cc(Cc2ccc(OCc3ccccc3)cc2)no1 [Example 1, 3-(3-(4-Benzyloxy-benzyl)-isoxazol-5-yl)-pyridin-2-ylamine] | 0.2 µg/mL (≈ 0.56 µM) | 12.2 days | 14.0 days | 0.2 µg/mL (≈ 0.56 µM) |
| Nc1ncccc1-c1cc(Cc2ccc(Cc3ccc(Cl)o3)cc2)no1 [Example 62, 3-(3-(4-(5-Chloro-furan-2-ylmethyl)-benzyl)-isoxazol-5-yl)-pyridin-2-ylamine] | 0.2 µg/mL (≈ 0.547 µM) | 10.2 days | – | 0.2 µg/mL (≈ 0.547 µM) |
| Cc1ccc(-c2cc(Cc3ccc(COc4ccccn4)cc3)no2)c(N)n1 [Example 171] | 0.39 µg/mL (≈ 1.05 µM) | 8.4 days | 12.6 days | 0.2 µg/mL (≈ 0.537 µM) |
| Nc1ccc(-c2cc(Cc3ccc(COc4ccccn4)cc3)no2)cn1 [Example 176] | 0.2 µg/mL (≈ 0.558 µM) | 12.6 days | 13.4 days | 0.2 µg/mL (≈ 0.558 µM) |
| Cc1ccc(Cc2ccc(Cc3cc(-c4ccc(N)nc4N)on3)cc2)o1 [Example 105, 3-(3-(4-(5-Methyl-furan-2-ylmethyl)-benzyl)-isoxazol-5-yl)-pyridin-2,6-diamine] | 0.2 µg/mL (≈ 0.555 µM) | 5.4 days | 12.8 days | 0.2 µg/mL (≈ 0.555 µM) |
| Nc1ccc(-c2cc(Cc3ccc(OCc4cccc(Cl)n4)cc3)no2)c(N)n1 [Example 110, 3-(3-(4-(6-Chloro-pyridin-2-ylmethoxy)-benzyl)-isoxazol-5-yl)-pyridin-2,6-diamine] | 0.78 µg/mL (≈ 1.91 µM) | 12.0 days | – | 0.78 µg/mL (≈ 1.91 µM) |
| Nc1ccc(-c2cc(Cc3ccc(OCc4ccc(F)cc4)nc3)no2)c(N)n1 [Example 116, 3-(3-(6-(4-Fluoro-benzyloxy)-pyridin-3-ylmethyl)-isoxazol-5-yl)-pyridin-2,6-diamine] | 0.2 µg/mL (≈ 0.511 µM) | 4.6 days | 12.6 days | 0.78 µg/mL (≈ 1.99 µM) |
| c1ccc(OCc2ccc(Cc3cc(-c4cccnc4)on3)cc2)nc1 [Example 202, 3-(3-(4-(Pyridin-2-yloxymethyl)-benzyl)-isoxazol-5-yl)-pyridine] | 0.2 µg/mL (≈ 0.582 µM) | 2.4 days | 10.0 days | 0.05 µg/mL (≈ 0.146 µM) |
| Nc1ccc(-c2cc(Cc3ccc(Oc4ccccc4)cc3)no2)c(N)n1 [Example 17, 3-(3-(4-Phenoxy-benzyl)-isoxazol-5-yl)-pyridin-2,6-diamine] | 0.2 µg/mL (≈ 0.558 µM) | 8.2 days | 13.0 days | 0.78 µg/mL (≈ 2.18 µM) |
| Nc1ncccc1-c1cnn(Cc2ccc(COc3ccccn3)cc2)c1 [Example 32, 3-(1-(4-(Pyridin-2-yloxymethyl)-benzyl)-1H-pyrazol-4-yl)-pyridin-2-ylamine] | 0.78 µg/mL (≈ 2.18 µM) | 10.2 days | 12.2 days | 0.2 µg/mL (≈ 0.56 µM) |
| Nc1ccc(-c2cnn(Cc3ccc(COc4ccccn4)cc3)c2)c(N)n1 [Example 37, 3-(1-(4-(Pyridin-2-yloxymethyl)-benzyl)-1H-pyrazol-4-yl)-pyridin-2,6-diamine] | 1.56 µg/mL (≈ 4.19 µM) | 5.4 days | 14.0 days | 0.39 µg/mL (≈ 1.05 µM) |
| Nc1ccc(-c2cnn(Cc3ccc(OCc4ccccc4)cc3)c2)c(N)n1 [Example 36, 3-(1-(4-Benzyloxy-benzyl)-1H-pyrazol-4-yl)-pyridin-2,6-diamine] | 0.78 µg/mL (≈ 2.1 µM) | 9.4 days | 14.0 days | 0.39 µg/mL (≈ 1.05 µM) |
| Cc1ccnc(COc2ccc(Cc3cc(-c4ccc(N)nc4N)on3)cc2)c1 [Example 24, 3-(3-(4-(4-Methyl-pyridin-2-ylmethoxy)-benzyl)-isoxazol-5-yl)-pyridin-2,6-diamine] | 0.78 µg/mL (≈ 2.01 µM) | 7.4 days | 14.0 days | 0.39 µg/mL (≈ 1.01 µM) |
| Nc1ncccc1-c1cc(Cc2ccc(OCc3ccc(F)cn3)cc2)no1 [Example 41, 3-(3-(4-(5-Fluoro-pyridin-2-ylmethoxy)-benzyl)-isoxazol-5-yl)-pyridin-2-ylamine] | 0.2 µg/mL (≈ 0.531 µM) | 11.4 days | 11.8 days | 0.39 µg/mL (≈ 1.04 µM) |
| Nc1ccc(-c2cc(Cc3ccc(COc4ccccn4)cc3)no2)c(N)n1 [Example 14] | 0.39 µg/mL (≈ 1.04 µM) | 13.4 days | 14.0 days | 0.39 µg/mL (≈ 1.04 µM) |
| CCCCOCc1ccc(Cc2cc(-c3ccc(N)nc3N)on2)cc1 [Example 16, 3-(3-(4-Butoxymethyl-benzyl)-isoxazol-5-yl)-pyridin-2,6-diamine] | 0.39 µg/mL (≈ 1.11 µM) | 4.8 days | 12.8 days | 0.39 µg/mL (≈ 1.11 µM) |
| COCc1ccc(-c2cc(Cc3ccc(COc4ccccn4)cc3)no2)c(N)n1 [Example 27] | 0.39 µg/mL (≈ 0.969 µM) | 3.0 days | 10.0 days | 0.2 µg/mL (≈ 0.497 µM) |
| Nc1ncccc1-c1cc(Cc2ccc(OCc3cc(Cl)ccn3)cc2)no1 [Example 51, 3-(3-(4-(4-Chloro-pyridin-2-ylmethoxy)-benzyl)-isoxazol-5-yl)-pyridin-2-ylamine] | 0.39 µg/mL (≈ 0.993 µM) | 13.5 days | 14.0 days | 0.1 µg/mL (≈ 0.255 µM) |
